Assay results as given in patent publication US20240216410A1, “METHODS AND COMPOSITIONS FOR TREATING CANCER THERAPY-INDUCED NEUTROPENIC FEVER AND/OR GVHD” (BOARD OF REGENTS, THE UNIVERSITY OF TEXAS SYSTEM, priority 2021, published 2024).
Where two headings read alike, the source gives them in different places.

Columns and labels:
[1] = system: A. muciniphila strain (MDA-JAX AM001); assay: Growth of A. muciniphila in BYEM10+ mucin medium (OD600 nm up to 48 hrs); type: cell-based, Akkermansia muciniphila
Method: SCFAs were added in 10 and 20 mM final concentration to bacterial culture. Growth of the bacteria at 37° C. in BYEM10+ mucin medium was read at OD600 nm continuously up to 48 hrs. Control Akkermansia culture was grown in absence of compounds.
Using a high-throughput screening strategy analyzing ˜1800 compounds, various other natural compounds in addition to SCFAs were identified for their potential to delay and/or suppress growth of MDA-JAX AM001. […] Growth of the bacteria at 37° C. in BYEM10+ mucin medium was read at OD600 nm continuously up to 48 hrs. Control Akkermansia culture was grown in absence of compounds.
Several active ruminal metabolites were also tested for their ability to delay and/or suppress growth of MDA-JAX AM001. Compounds were selected based on initial testing of Akkermansia growth in medium containing 1× to 3× concentrated ruminal fluid, followed by analysis of metabolite content by MALDI-TOF mass-spectrometry. Ruminal metabolite compounds tested included Malic acid (2 mM and 5.6 mM), 3-Indole acetic acid (5.6 mM and 8.6 mM), Hydrocinnamic acid (2.66 mM and 3.99 mM), Methylmalonic acid (8.4 mM and 10.6 mM), Glucoranic acid (16.8 mM), Galacturonic acid (14 mM), and Bis-hydroxy methyl propionic acid (22 mM). These ruminal metabolite compounds have also been found in human stool, as analyzed by MALDI-TOF mass spectrometry. […] Growth of the bacteria at 37° C. in BYEM10+ mucin medium was read at OD600 nm continuously up to 48 hrs. Control Akkermansia culture was grown in absence of compounds.

Akkermansia [2] = system: Akkermansia
[3] = system: A. muciniphila (MDA-JAX AM001); details: for mucin glycan utilization by A. muciniphila: physiological concentrations, varying pH, 48 hours of culture
Method: The impact of DR-induced metabolic changes in the colonic lumen on A. muciniphila behavior was also studied using an in vitro mucin glycan consumption assay. A novel A. muciniphila (MDA-JAX AM001) strain was isolated from the feces of C57BL6 mice and introduced to liquid media supplemented with PGM, and the effects of varying pH either alone or combined with the presence of physiological concentrations of acetate, propionate, and butyrate were evaluated.

Akkermansia [4] = assay: Dietary restriction in mice with narrow-spectrum antibiotics in the drinking water; type: in vivo; details: antibiotic in drinking water from 5 days prior to dietary restriction
Excerpt: Diet is a major determinant of intestinal microbiome composition, and the indirect impact of RT on microbiome composition due to a reduction in intake of food in mice was investigated. Mice were individually housed in metabolic cages following RT to quantify effects of RT on food and water intake. Within 2 days following RT, mice had reduced their oral intake to approximately 2 grams a day, or a 50% reduction (FIG. 3A). To evaluate whether dietary restriction (DR) could impact intestinal microbiome composition and the colonic mucus layer, normal, un-irradiated mice were limited 2 grams of chow per mouse per day for 7 days.
Because commercially-available mice lacking Akkermansia are not easy to find (12), narrow-spectrum antibiotics were used to evaluate the specific contribution of Akkermansia to mucus thinning during DR.

Akkermansia [5] = assay: Total body radiotherapy (9 Gy RT) mice treated with azithromycin or propionate; type: in vivo; details: for colonic mucus layer thickness: 9 Gy total body RT; for colonic tissue levels of IL-1b, CCL2, CCL7, IL-22, CXCL1 and CXCL10 / ocular surface temperatures (hypothermia) / outgrowth of Akkermansia: day 6 after RT; for outgrowth of Akkermansia: 16S rRNA gene sequencing
Method: C57BL/6 mice were exposed to a single myeloablative dose of total body radiotherapy (9 Gy RT), and stool samples were evaluated 6 days later by 16S rRNA gene sequencing. […] Colonic tissue samples were cut cross-sectionally and mucus layer thickness was averaged across 8 equally-spaced circumferential sites (FIG. 7) to evaluate whether the dense colonic mucus layer, which normally separates bacteria-rich luminal contents from the colonic epithelium, was affected by irradiation in mice.
Additionally, ocular surface temperatures were non-invasively measured in mice using a published method (16) because in contrast to humans, mice are develop hypothermia in response to exposure to inflammatory ligands such as LPS (17) and in models of sepsis (18).
The degree of inflammation in colonic tissue was directed measured by quantifying levels of a panel of cytokines (FIG. 5C).

[6] = human, in vivo
Method: In this study, data from 295 patients with acute myeloid leukemia (AML) or myelodysplastic syndrome (MDS) who underwent allo-HSCT with tacrolimus and methotrexate as GVHD prophylaxis following conditioning therapy with fludarabine and 5 busulfan from 2011 to 2016 were retrospectively examined. The incidence of acute intestinal GVHD until day 100 after transplant was evaluated and compared were patients who received neither cefepime nor meropenem, those who received cefepime alone, those who received meropenem alone, and those who received both cefepime and meropenem during the period from days −10 to 30 relative to allo-HSCT infusion.
Retrospective study design. 295 patients with acute myeloid leukemia (AML) or myelodysplastic syndrome (MDS) underwent allogeneic hematopoietic stem cell transplantation (allo-HSCT) with fludarabine plus busulfan as conditioning therapy and tacrolimus and methotrexate as GVHD prophylaxis from 2011 and 2016 and were analyzed retrospectively. Patients were classified by antibiotic exposures, including those who received neither cefepime nor meropenem, those who received cefepime alone, those who received meropenem alone and those who received both cefepime and meropenem from day −10 to day 30 after allo-HSCT. Acute GVHD was diagnosed by clinical and/or pathological findings, and graded according to standard criteria (56).

[7] = Melphalan therapy in mice: intestinal microbiome and colonic mucus layer; type: in vivo; details: 6 days following melphalan 20 mg/kg, C57BL/6 mice
Excerpt: Myeloablative RT, previously a foundational pillar that made HCT possible, has been progressively replaced by chemotherapy, particularly alkylating agents (11). […] An expansion of Bacteroides was also seen, though this was not statistically significant after correction for multiple comparisons, and was accompanied by a loss of Muribaculaceae, similar to that following RT.

[8] = Malic acid 2 and 5.6 mM, 3-Indole acetic acid 5.6 and 8.6 mM, Hydrocinnamic acid 2.66 and 3.99 mM, Methylmalonic acid 8.4 and 10.6 mM, Glucoranic acid 16.8 mM, Galacturonic acid 14 mM, Bis-hydroxy methyl propionic acid 22 mM
[9] = Brucine 2.5 and 5 mM, Methyl-β-D-galactopyranoside 14 mM, Resacetophenone 3.3 and 5 mM, Serotonin 4.7 and 7.1 mM
[10] = acidified drinking water (pH3), one week dietary restriction
[11] = 10 mM and 20 mM, vs mucin-only control, 37° C.
[12] = drinking water at neutral pH, dietary restriction

In the case of `O=C(O)Cc1c[nH]c2ccccc12` [3-Indole acetic acid], the “growth of MDA-JAX AM001” value [1, 8] is reported as “delay and inhibit MDA-JAX AM001 growth”.
In the case of `CC(CO)(CO)C(=O)O` [Bis-hydroxy methyl propionic acid], the “growth of MDA-JAX AM001” value [1, 8] is reported as “delay and inhibit MDA-JAX AM001 growth”.
In the case of `COc1cc2c(cc1OC)[C@@]13CCN4CC5=CCO[C@H]6CC(=O)N2[C@H]1[C@H]6[C@H]5C[C@H]43` [Brucine], the “growth of MDA-JAX AM001” value [1, 9] is reported as “delay and suppress the growth of MDA-JAX AM001”.
For `O=C[C@H](O)[C@@H](O)[C@@H](O)[C@H](O)C(=O)O` [Galacturonic acid], the “growth of MDA-JAX AM001” value [1, 8] was “delay and inhibit MDA-JAX AM001 growth”.
With `O=C(O)CCc1ccccc1` [Hydrocinnamic acid] the “growth of MDA-JAX AM001” value [1, 8] was “delay and inhibit MDA-JAX AM001 growth”.
With `O=C(O)CC(O)C(=O)O` (stereo not drawn) [Malic acid] the “growth of MDA-JAX AM001” value [1, 8] was “delay and inhibit MDA-JAX AM001 growth”.
For `CO[C@@H]1O[C@H](CO)[C@H](O)[C@H](O)[C@H]1O` [Methyl-β-D-galactopyranoside], the “growth of MDA-JAX AM001” value [1, 9] was “delay and suppress the growth of MDA-JAX AM001”.
In the case of `CC(C(=O)O)C(=O)O` [Methylmalonic acid], the “growth of MDA-JAX AM001” value [1, 8] is reported as “delay and inhibit MDA-JAX AM001 growth”.
In the case of `CC(=O)c1ccc(O)cc1O` [Resacetophenone], the “growth of MDA-JAX AM001” value [1, 9] is reported as “delay and suppress the growth of MDA-JAX AM001”.
With `NCCc1c[nH]c2ccc(O)cc12` [Serotonin] the “growth of MDA-JAX AM001” value [1, 9] was “delay and suppress the growth of MDA-JAX AM001”.
For `CC(=O)[O-].[Na+]` [acetate, sodium acetate], the “expansion of Akkermansia” value (Akkermansia [2]; [10]) was “no such preventative effect”, the “fecal / colonic luminal pH” value (Akkermansia [2]; [10]) was “lowering the pH in the colonic lumen” and the “thinning of the colonic mucus layer” value (Akkermansia [2]; [10]) was “no such preventative effect”. For the same compound, the “mucin glycan utilization by A. muciniphila” value (from here on “mucin glycan utilization”) [3] was “negligible effects on A. muciniphila behavior”.
In the case of `CC[C@H]1OC(=O)[C@H](C)[C@@H](O[C@H]2C[C@@](C)(OC)[C@@H](O)[C@H](C)O2)[C@H](C)[C@@H](O[C@@H]2O[C@H](C)C[C@H](N(C)C)[C@H]2O)[C@](C)(O)C[C@@H](C)CN(C)[C@H](C)[C@@H](O)[C@]1(C)O` [azithromycin], the bacterial populations depleted (Akkermansia [4]) is reported as “depleted Akkermansia as well as some gram positive populations”, the “colonic mucus layer thinning during dietary restriction” value (Akkermansia [4]) is reported as “prevented thinning of the colonic mucus layer” and the “colonic mucus layer thickness” value (Akkermansia [5]) is reported as “effective in preserving colonic mucus layer thickness”. For the same compound, the “colonic tissue levels of IL-1b, CCL2, CCL7, IL-22, CXCL1 and CXCL10” value (Akkermansia [5]) was “reduced”, the “ocular surface temperatures (hypothermia)” value (Akkermansia [5]) was “less depressed at day 6” and the “outgrowth of Akkermansia” value (Akkermansia [5]) was “very effective at preventing outgrowth of Akkermansia”.
In the case of `CCCC(=O)[O-].[Na+]` [butyrate, sodium butyrate], the “mucin glycan utilization” value [3] is reported as “negligible effects on A. muciniphila behavior”.
For `CO/N=C(\C(=O)N[C@@H]1C(=O)N2C(C(=O)[O-])=C(C[N+]3(C)CCCC3)CS[C@H]12)c1csc(N)n1` [cefepime], the “Acute GVHD Grade 0, number of patients” value [6] was 57, the “Acute GVHD Grade 0, percentage of patients” value [6] was “(46%)” and the “Acute GVHD Grade I, number of patients” value [6] was 26. The “Acute GVHD Grade I, percentage of patients” value [6] was “(21%)”, the “Acute GVHD Grade II, number of patients” value [6] was 34 and the “Acute GVHD Grade II, percentage of patients” value [6] was “(27%)”. The “Acute GVHD Grade III-IV, number of patients” value ([6]; iv) was 7 and the “Acute GVHD Grade III-IV, percentage of patients” value ([6]; iv) was “(6%)”.
In the case of `CC(C)CC(=O)O` [isovalerate], the “growth of MDA-JAX AM001” value [1, 11] is reported as “suppress and/or delay MDA-JAX AM001 growth”.
In the case of `N[C@@H](Cc1ccc(N(CCCl)CCCl)cc1)C(=O)O` [melphalan], the “changes in the intestinal microbiome” value [7] is reported as “increase in the abundance of Akkermansia” and the “colonic mucus layer thickness” value [7] is reported as “significantly thinner”.
With `CCC(=O)[O-].[Na+]` [propionate, sodium propionate] the “expansion of Akkermansia” value (Akkermansia [2]; [10]) was “mitigated expansion of Akkermansia”, the “fecal / colonic luminal pH” value (Akkermansia [2]; [10]) was “reduced fecal pH” and the “thinning of the colonic mucus layer” value (Akkermansia [2]; [10]) was “prevented thinning of the mucus layer”. The “expansion of Akkermansia” value (Akkermansia [2]; [12]) was “trended towards preventing Akkermansia expansion”, the “thinning of the colonic mucus layer” value (Akkermansia [2]; [12]) was “sufficient to prevent mucus thinning” and the “colonic mucus layer thickness” value (Akkermansia [5]) was “effective in preserving colonic mucus layer thickness”. The “colonic tissue levels of IL-1b, CCL2, CCL7, IL-22, CXCL1 and CXCL10” value (Akkermansia [5]) was “prevented elevation of all of these cytokines, with the exception of CXCL1”, the “ocular surface temperatures (hypothermia)” value (Akkermansia [5]) was “less depressed at day 6” and the “outgrowth of Akkermansia” value (Akkermansia [5]) was “not effective”. For the same compound, the “growth of A. muciniphila” value ([3]; higher levels, OD 600) was “delays in growth” and the “mucin glycan utilization” value [3] was “inhibitory effects on mucin glycan utilization”.
With `[H]/N=C(/N)N[C@H]1[C@H](O)[C@@H](O)[C@H](O[C@@H]2O[C@@H](C)[C@](O)(C=O)[C@H]2O[C@@H]2O[C@@H](CO)[C@H](O)[C@@H](O)[C@@H]2NC)[C@@H](N/C(N)=N\[H])[C@@H]1O` [streptomycin] the bacterial populations depleted (Akkermansia [4]) was “depleted certain gram-positive bacteria” and the “colonic mucus layer thinning during dietary restriction” value (Akkermansia [4]) was “Neither streptomycin nor vancomycin had a significant effect on mucus barrier loss”.
With `CCCCC(=O)O` [valerate] the “growth of MDA-JAX AM001” value [1, 11] was “suppress and/or delay MDA-JAX AM001 growth”.
In the case of `CN[C@H](CC(C)C)C(=O)N[C@H]1C(=O)N[C@@H](CC(N)=O)C(=O)N[C@H]2C(=O)N[C@H]3C(=O)N[C@H](C(=O)N[C@H](C(=O)O)c4cc(O)cc(O)c4-c4cc3ccc4O)[C@H](O)c3ccc(c(Cl)c3)Oc3cc2cc(c3O[C@@H]2O[C@H](CO)[C@@H](O)[C@H](O)[C@H]2O[C@H]2C[C@](C)(N)[C@H](O)[C@H](C)O2)Oc2ccc(cc2Cl)[C@H]1O` [vancomycin], the bacterial populations depleted (Akkermansia [4]) is reported as “depleted both gram-positive bacteria and some Bacteroidetes” and the “colonic mucus layer thinning during dietary restriction” value (Akkermansia [4]) is reported as “Neither streptomycin nor vancomycin had a significant effect on mucus barrier loss”.
